# Target: T1, ERR1 (also known as ERR-α or ERR-1) (Homo sapiens, UniProt P11474)
# T1 sequence (P11474 193-421 limits assumed): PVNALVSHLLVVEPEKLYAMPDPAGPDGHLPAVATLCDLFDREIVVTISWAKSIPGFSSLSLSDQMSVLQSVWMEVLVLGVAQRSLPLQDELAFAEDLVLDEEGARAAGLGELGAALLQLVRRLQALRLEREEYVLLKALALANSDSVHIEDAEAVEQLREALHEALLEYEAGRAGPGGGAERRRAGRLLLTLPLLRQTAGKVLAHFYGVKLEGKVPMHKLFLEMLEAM
# Assay: TR-FRET assay (disruption of co-activator peptide binding)
# Format: biochemical
# Details: 6His-tagged ERR1 LBD, GST-hSRC2 co-activator polypeptide; average of 3 independent experiments
# Description: Time-Resolved Fluorescence Resonance Energy Transfer (TR-FRET) experiments were performed to examine the functional response of ERR1 (also known as ERR-α or ERR-1) ligands. The TR-FRET assay described herein relied on the conformation of ERR1 for binding to a co-activator peptide: when a test compound binds to ERR1 and alters its conformation, it can disrupt the binding of the co-activator peptide. The components of this homogeneous secondary assay included: the ^6His-tagged-ERR1LBD, a GST-labeled-hSRC2 co-activator polypeptide and a fluorescent donor/acceptor pair from CIS bio international htrf/bioassays (Bedford, Mass.) using both an α-GST Europium Cryptate (Eu) label and an α^6His-XL665 (allophycocyanin) fluorophore.
# For TR-FRET measurements, the reaction was buffered in 25 mM Tris pH 8, 2.5 mM Hepes, 20 mM KCl, 1 mM DTT, and 0.05 mg/mL BSA (-lipids). The final concentrations of reagents were 6 nM of ERR1LBD, 6 nM GST-SRC-2 peptide, 30 nM Eu cryptate, and 7.5 nM XL665. Reactions were allowed to reach equilibrium at 25° C. for 4-18 hours before collecting data on the Analyst from LJL Biosystems (Molecular Devices Sunnyvale, Calif.). As a time-resolved method, the samples were excited at […] and emission was collected for 1 ms at both 615 and 665 nm with delays of 400 and 75 μs, respectively. Dose response curves were fitted using a hyperbolic equation and the data reported is the average of 3 independent experiments.
row,Structure (SMILES),EC50 [nM]
1,"O=C1N=C(N2CCN(CCO)CC2)S/C1=C\c1ccc2c(cnn2Cc2ccc(F)cc2C(F)(F)F)c1 [Compound 4, 5-[1-(4-Fluoro-2-trifluoromethyl-benzyl)-1H-indazol-5-ylmethylene]-2-[4-(2-hydroxy-ethyl)-piperazin-1-yl]-thiazol-4-one]",92
2,"CC(=O)N1CCN(C2=NC(=O)/C(=C/c3ccc4c(cnn4Cc4ccc(F)cc4C(F)(F)F)c3)S2)CC1 [Compound 5, 2-(4-Acetyl-piperazin-1-yl)-5-[1-(4-fluoro-2-trifluoromethyl-benzyl)-1H-indazol-5-ylmethylene]-thiazol-4-one]",42
3,"O=C1N=C(N2CCNCC2)S/C1=C\c1ccc2c(cnn2Cc2ccc(C(F)(F)F)cc2C(F)(F)F)c1 [Compound 7, 5-[1-(2,4-Bis-trifluoromethyl-benzyl)-1H-indazol-5-ylmethylene]-2-piperazin-1-yl-thiazol-4-one]",38
4,"N#Cc1ccc(Cn2ncc3cc(/C=C4\SC(N5CCN(CCO)CC5)=NC4=O)ccc32)c(C(F)(F)F)c1 [Compound 9, 4-(5-{2-[4-(2-Hydroxy-ethyl)-piperazin-1-yl]-4-oxo-4H-thiazol-5-ylidenemethyl}-indazol-1-ylmethyl)-3-trifluoromethyl-benzonitrile]",57.5
5,"CN1CCN(C2=NC(=O)/C(=C/c3ccc4c(cnn4Cc4ccc(C#N)cc4C(F)(F)F)c3)S2)CC1 [Compound 10, 4-{5-[2-(4-Methyl-piperazin-1-yl)-4-oxo-4H-thiazol-5-ylidenemethyl]-indazol-1-ylmethyl}-3-trifluoromethyl-benzonitrile]",199
6,"O=C1N=C(N2C[C@H](O)C[C@H]2C(=O)O)S/C1=C\c1ccc2c(cnn2Cc2ccc(Cl)cc2C(F)(F)F)c1 [Compound 11, 1-{5-[1-(4-Chloro-2-trifluoromethyl-benzyl)-1H-indazol-5-ylmethylene]-4-oxo-4,5-dihydro-thiazol-2-yl}-4-(R)-hydroxy-pyrrolidine-2-(S)-carboxylic acid]",57
7,"O=C1N=C(N2CCN(CCO)CC2)S/C1=C\c1ccc2c(cnn2Cc2ccc(Cl)cc2Cl)c1 [Compound 14, 5-[1-(2,4-Dichloro-benzyl)-1H-indazol-5-ylmethylene]-2-[4-(2-hydroxy-ethyl)-piperazin-1-yl]thiazol-4-one]",68
8,"CN1CCN(C2=NC(=O)/C(=C/c3ccc4c(cnn4Cc4ccc(S(C)(=O)=O)cc4C(F)(F)F)c3)S2)CC1 [Compound 15, 5-[1-(4-Methanesulfonyl-2-trifluoromethyl-benzyl)-1H-indazol-5-ylmethylene]-2-(4-methyl-piperazin-1-yl)-thiazol-4-one]",530
9,"CS(=O)(=O)c1ccc(Cn2ncc3cc(/C=C4\SC(N5CCN(CCO)CC5)=NC4=O)ccc32)c(C(F)(F)F)c1 [Compound 16, 2-[4-(2-Hydroxy-ethyl)-piperazin-1-yl]-5-[1-(4-methanesulfonyl-2-trifluoromethyl-benzyl)-1H-indazol-5-ylmethylene]-thiazol-4-one]",450
10,"CN1CCN(C2=NC(=O)/C(=C/c3ccc4c(cnn4Cc4ccc(S(C)(=O)=O)cc4Cl)c3)S2)CC1 [Compound 17, 5-[1-(2-Chloro-4-methanesulfonyl-benzyl)-1H-indazol-5-ylmethylene]-2-(4-methyl-piperazin-1-yl)-thiazol-4-one]",> 4000
11,"CS(=O)(=O)c1ccc(Cn2ncc3cc(/C=C4\SC(N5CCNC(=O)C5)=NC4=O)ccc32)c(Cl)c1 [Compound 18, 4-{5-[1-(2-Chloro-4-methanesulfonyl-benzyl)-1H-indazol-5-ylmethylene]-4-oxo-4,5-dihydro-thiazol-2-yl}-piperazin-2-one]",> 4000
12,"CS(=O)(=O)c1ccc(Cn2ncc3cc(/C=C4\SC(N5CCN(CCO)CC5)=NC4=O)ccc32)c(Cl)c1 [Compound 19, 5-[1-(2-Chloro-4-methanesulfonyl-benzyl)-1H-indazol-5-ylmethylene]-2-[4-(2-hydroxy-ethyl)-piperazin-1-yl]-thiazol-4-one]",350
13,"CN1CCN(C2=NC(=O)/C(=C/c3ccc4c(cnn4Cc4ccc(C(N)=O)cc4C(F)(F)F)c3)S2)CC1 [Compound 20, 4-{5-[2-(4-Methyl-piperazin-1-yl)-4-oxo-4H-thiazol-5-ylidenemethyl]-indazol-1-ylmethyl}-3-trifluoromethyl-benzamide]",300

# The next molecules have a lower EC50 than those just listed; values first:
row,EC50 [nM],Structure (SMILES)
1,21,"O=C1N=C(N2CCOCC2)S/C1=C\c1ccc2c(cnn2Cc2ccc(C(F)(F)F)cc2C(F)(F)F)c1 [Compound 3, 5-[1-(2,4-Bis-trifluoromethyl-benzyl)-1H-indazol-5-ylmethylene]-2-morpholin-4-yl-thiazol-4-one]"
2,11,"O=C1N=C(N2CC[C@H](NC(=O)C(F)(F)F)C2)S/C1=C\c1ccc2c(cnn2Cc2ccc(Cl)cc2C(F)(F)F)c1 (stereo in doubt) [Example 116, N-(1-{5-[1-(4-Chloro-2-trifluoromethyl-benzyl)-1H-indazol-5-ylmethylene]-4-oxo-4,5-dihydro-thiazol-2-yl}-pyrrolidin-3-yl)-2,2,2-trifluoro-acetamide]"
3,9,"O=C1N=C(N2CCN(CCO)CC2)S/C1=C\c1ccc2c(cnn2Cc2ccc(C(F)(F)F)cc2C(F)(F)F)c1 [Compound 6, 5-[1-(2,4-Bis-trifluoromethyl-benzyl)-1H-indazol-5-ylmethylene]-2-[4-(2-hydroxy-ethyl)-piperazin-1-yl]-thiazol-4-one]"
4,8.4,"CN[C@H]1CCN(C2=NC(=O)/C(=C/c3ccc4c(cnn4Cc4ccc(Cl)cc4C(F)(F)F)c3)S2)C1 (stereo in doubt) [Example 115, 5-[1-(4-Chloro-2-trifluoromethyl-benzyl)-1H-indazol-5-ylmethylene]-2-(3-methylamino-pyrrolidin-1-yl)-thiazol-4-one]"
5,7.2,"CN1CCN(C2=NC(=O)/C(=C/c3ccc4c(cnn4Cc4ccc(C(F)(F)F)cc4C(F)(F)F)c3)S2)CC1 [Compound 2, 5-[1-(2,4-Bis-trifluoromethyl-benzyl)-1H-indazol-5-ylmethylene]-2-(4-methyl-piperazin-1-yl)-thiazol-4-one]"
6,7,"CN1CCN(C2=NC(=O)/C(=C/c3ccc4c(cnn4Cc4ccc(Cl)cc4C(F)(F)F)c3)S2)CC1 [Compound 8, 5-[1-(4-Chloro-2-trifluoromethyl-benzyl)-1H-indazol-5-ylmethylene]-2-(4-methyl-piperazin-1-yl)-thiazol-4-one]"
7,5,"CC[C@H]1CN(C2=NC(=O)/C(=C/c3ccc4c(cnn4Cc4ccc(Cl)cc4C(F)(F)F)c3)S2)CCN1 (stereo in doubt) [Example 123, 5-[1-(4-Chloro-2-trifluoromethyl-benzyl)-1H-indazol-5-ylmethylene]-2-(3-ethyl-piperazin-1-yl)-thiazol-4-one]"
8,4.7,"O=C1N=C(N2CCN(CCO)CC2)S/C1=C\c1ccc2c(cnn2Cc2ccc(Cl)cc2C(F)(F)F)c1 [Compound 13, 5-[1-(4-Chloro-2-trifluoromethyl-benzyl)-1H-indazol-5-ylmethylene]-2-[4-(2-hydroxy-ethyl)piperazin-1-yl]-thiazol-4-one]"
9,4.6,"O=C1CN(C2=NC(=O)/C(=C/c3ccc4c(cnn4Cc4ccc(Cl)cc4C(F)(F)F)c3)S2)CCN1 [Compound 12, 4-{5-[1-(4-Chloro-2-trifluoromethyl-benzyl)-1H-indazol-5-ylmethylene]-4-oxo-4,5-dihydro-thiazol-2-yl}-piperazin-2-one]"

# From US8399681B2, “Substituted aminothiazolone indazoles as estrogen related receptor-alpha modulators” (Janssen Pharmaceutica NV, priority 2009, dated 2013)
